# From patent US8022091B2, “Triazole derivative” (Taisho Pharmaceutical Co., Ltd., priority 2006, dated 2011)
# Target: T1, human Edg-1 (S1P1) (Homo sapiens, UniProt P21453)
# T1 construct: expressed in transfected cells; host or cells: HEK-293
# Assay: S1P1 binding assay: inhibition of [33P]-S1P binding to membrane fraction of HEK-293 cells transferred with the human Edg-1 (S1P1) gene
# Settings: [33P]-S1P 0.1 nM, human Edg-1 (S1P1) HEK-293 membrane fraction, 1 h at 30° C.; read-out: IC50 (concentration at which binding in the absence of the test compound was inhibited by 50%)
# Procedure, shortened: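 With 0.1 nM [33P]-S1P and compound (10^−5M single point, or a concentration range for IC50) in 0.1% DMSO, membrane fractions from human Edg-1-expressing HEK-293 cells were treated for one hour at 30° C in 20 mM Tris-HCl pH 7.4 with NaF, deoxypyridoxine and BSA. Bound label was measured after filtration, with untransfected-cell background subtracted.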
# T1 sequence (P21453 whole entry): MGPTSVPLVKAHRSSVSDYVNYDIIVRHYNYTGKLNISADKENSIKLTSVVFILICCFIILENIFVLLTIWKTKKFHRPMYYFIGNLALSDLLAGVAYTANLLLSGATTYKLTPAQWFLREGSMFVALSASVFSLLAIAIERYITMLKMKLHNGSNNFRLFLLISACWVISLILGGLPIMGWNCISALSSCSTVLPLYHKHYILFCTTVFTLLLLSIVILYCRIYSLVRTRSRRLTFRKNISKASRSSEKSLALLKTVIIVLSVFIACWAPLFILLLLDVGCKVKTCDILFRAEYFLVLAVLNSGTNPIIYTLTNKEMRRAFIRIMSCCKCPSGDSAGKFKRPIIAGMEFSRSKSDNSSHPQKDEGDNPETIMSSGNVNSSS
row,IC50 [nM],SMILES
1,4.2,"CCn1c(Oc2cccc(N3CCN(C)CC3)c2)nnc1[C@@H](C)NS(=O)(=O)c1ccc(Cl)c(Cl)c1 [Compound 45, 3,4-Dichloro-N-((R)-1-[4-ethyl-5-[3-(4-methyl-piperazin-1-yl)-phenoxy]-4H-[1,2,4]triazol-3-yl]-ethyl)-benzenesulfonamide]"

# Same assay, conditions: test compound 10 μM; inhibition of [33P]-S1P binding, membrane fraction
row,inhibition at 10 µM [%],SMILES
1,75.8,CCn1c(Oc2ccc3cc[nH]c3c2)nnc1[C@@H](C)NS(=O)(=O)c1cc(Cl)ccc1F [Compound 446]
2,87,CCn1c(Oc2cccc(N3CCN(C)CC3)c2)nnc1[C@@H](C)NS(=O)(=O)c1sc2ccc(Cl)cc2c1C [Compound 509]
3,82.5,CCn1c(Oc2ccc3cc[nH]c3c2)nnc1[C@@H](C)NS(=O)(=O)c1cc(F)c(F)cc1Cl [Compound 412]
4,80.5,CCn1c(Oc2ccc3cc[nH]c3c2)nnc1[C@@H](C)NS(=O)(=O)c1ccc(Br)cc1Br [Compound 431]
5,71.1,CCn1c(Oc2ccc3cc[nH]c3c2)nnc1[C@@H](C)NS(=O)(=O)c1ccc(-c2ccno2)s1 [Compound 429]
6,55.6,CCn1c(Oc2ccc3cc[nH]c3c2)nnc1[C@@H](C)NS(=O)(=O)c1ccc(F)cc1C [Compound 445]
7,71.7,CCn1c(Oc2cccc(N3CCN(C)CC3)c2)nnc1[C@@H](C)NS(=O)(=O)c1ccc(Cl)c(S(N)(=O)=O)c1 [Compound 654]
8,72.5,CCn1c(Oc2ccc3cc[nH]c3c2)nnc1[C@@H](C)NS(=O)(=O)c1cccc(Cl)c1 [Compound 403]
9,53.9,CCn1c(Oc2cccc(N3CCN(C)CC3)c2)nnc1[C@@H](C)NS(=O)(=O)c1c(C)nn(C)c1C [Compound 544]
10,97,CCn1c(Oc2cccc(N3CCN(C)CC3)c2)nnc1[C@@H](C)NS(=O)(=O)c1ccc2c(c1)OCCCO2 [Compound 674]
11,90.9,CCn1c(Oc2cccc(N3CCN(C)CC3)c2)nnc1[C@@H](C)NS(=O)(=O)c1ccc(F)cc1C [Compound 613]
12,111,CCn1c(Oc2cccc(N3CCN(C)CC3)c2)nnc1[C@@H](C)NS(=O)(=O)c1ccc(OC)cc1 [Compound 518]
13,81.4,CCn1c(Oc2cccc(N3CCN(C)CC3)c2)nnc1[C@@H](C)NS(=O)(=O)c1ccc(C#N)cc1Cl [Compound 576]
14,52.1,CCn1c(Oc2cccc(N3CCN(C)CC3)c2)nnc1[C@@H](C)NS(=O)(=O)c1c(C(C)C)cc(C(C)C)cc1C(C)C [Compound 527]
15,58.9,CCn1c(Oc2cccc(N3CCN(C)CC3)c2)nnc1[C@@H](C)NS(=O)(=O)c1ccc(F)cc1C(F)(F)F [Compound 622]
16,85.2,CCn1c(Oc2cccc(N3CCN(C)CC3)c2)nnc1[C@@H](C)NS(=O)(=O)c1cc(C)sc1C [Compound 641]
17,87.9,CCn1c(Oc2ccc3cc[nH]c3c2)nnc1[C@@H](C)NS(=O)(=O)c1ccc2nsnc2c1 [Compound 464]
18,75,CCn1c(Oc2cccc(N3CCN(C)CC3)c2)nnc1[C@@H](C)NS(=O)(=O)c1cc(OC)ccc1OC [Compound 569]
19,95.8,CCn1c(Oc2cccc(N3CCN(C)CC3)c2)nnc1[C@@H](C)NS(=O)(=O)c1cccc(F)c1 [Compound 592]
20,97.3,CCn1c(Oc2ccc3cc[nH]c3c2)nnc1[C@@H](C)NS(=O)(=O)c1cc(F)cc(F)c1 [Compound 437]

row,inhibition at 10 µM [%],SMILES
1,91.9,CCc1ccc(OC)c(S(=O)(=O)N[C@H](C)c2nnc(Oc3cccc(N4CCN(C)CC4)c3)n2CC)c1 [Compound 652]
2,50.7,CCn1c(Oc2cccc(N3CCN(C)CC3)c2)nnc1[C@@H](C)NS(=O)(=O)c1ccccc1C(=O)OC [Compound 545]
3,92.7,CCn1c(Oc2ccc(F)cc2)nnc1[C@@H](CF)NS(=O)(=O)c1ccc(Cl)c(Cl)c1 [Compound 689]
4,105,CCn1c(Oc2cccc(N3CCN(C)CC3)c2)nnc1[C@@H](C)NS(=O)(=O)c1cccc(OC)c1 [Compound 556]
5,51.8,CCn1c(Oc2ccc3cc[nH]c3c2)nnc1[C@@H](C)NS(=O)(=O)c1ccc(C(F)(F)F)cc1Cl [Compound 475]
6,115,CCn1c(Oc2cccc(N3CCN(C)CC3)c2)nnc1[C@@H](C)NS(=O)(=O)c1cccc(C(F)(F)F)c1 [Compound 530]
7,83,CCn1c(Oc2cccc(N3CCN(C)CC3)c2)nnc1[C@@H](C)NS(=O)(=O)c1c(F)c(F)c(F)c(F)c1F [Compound 524]
8,75.5,CCCCOc1ccc(S(=O)(=O)N[C@H](C)c2nnc(Oc3cccc(N4CCN(C)CC4)c3)n2CC)cc1 [Compound 502]
9,99.9,CCn1c(Oc2cccc(N3CCN(C)CC3)c2)nnc1[C@@H](C)NS(=O)(=O)c1ccc(Br)cc1Cl [Compound 616]
10,50.3,CCn1c(Oc2cccc(N3CCN(C)CC3)c2)nnc1[C@@H](C)NS(=O)(=O)c1ccc2c(c1)CN(C(=O)C(F)(F)F)CC2 [Compound 536]
11,77.5,CCn1c(Oc2cccc(N3CCN(C)CC3)c2)nnc1[C@@H](C)NS(=O)(=O)c1c(Cl)cc(Br)cc1Cl [Compound 617]
12,114,CCn1c(Oc2cccc(N3CCN(C)CC3)c2)nnc1[C@@H](C)NS(=O)(=O)c1ccc(C)c(F)c1 [Compound 612]
13,116,CCn1c(Oc2cccc(N3CCN(C)CC3)c2)nnc1[C@@H](C)NS(=O)(=O)c1cccc(Br)c1 [Compound 503]
14,58.1,CCn1c(Oc2ccc3cc[nH]c3c2)nnc1[C@@H](C)NS(=O)(=O)c1cccc(C(C)=O)c1 [Compound 477]
15,111,CCn1c(Oc2cccc(N3CCN(C)CC3)c2)nnc1[C@@H](C)NS(=O)(=O)c1ccc2nsnc2c1 [Compound 633]
16,104,CCn1c(Oc2cccc(N3CCN(C)CC3)c2)nnc1[C@@H](C)NS(=O)(=O)c1ccc2oc(=O)ccc2c1 [Compound 679]
17,101,CCn1c(Oc2cccc(N3CCN(C)CC3)c2)nnc1[C@@H](C)NS(=O)(=O)c1cc(C)oc1C(F)(F)F [Compound 629]
18,74.4,CCn1c(Oc2cccc(N3CCN(C)CC3)c2)nnc1[C@@H](C)NS(=O)(=O)c1cc(F)ccc1C [Compound 560]
19,88.4,CCn1c(Oc2ccc3cc[nH]c3c2)nnc1[C@@H](C)NS(=O)(=O)c1ccc(Br)c(C)c1 [Compound 440]
20,107,CCn1c(Oc2cccc(N3CCN(C)CC3)c2)nnc1[C@@H](C)NS(=O)(=O)c1ccc2c(c1)OCCO2 [Compound 630]

# Same assay, conditions: test compound at 10 μM; inhibition of [33P]-S1P binding to the membrane fraction of HEK-293 cells expressing human Edg-1 (S1P1)
row,inhibition at 10 µM [%],SMILES
1,69.2,CCn1c(Oc2ccc(F)cc2)nnc1[C@@H](C)NS(=O)(=O)c1cc(C)ccc1OC [Compound 221]
2,53.9,CCn1c(Oc2ccc(F)cc2)nnc1[C@@H](C)NS(=O)(=O)c1cc(OC)ccc1OC [Compound 228]
3,95.7,CCn1c(Oc2ccc3cc[nH]c3c2)nnc1[C@@H](C)NS(=O)(=O)c1ccc(C)cc1 [Compound 359]
4,85.9,CCn1c(Oc2ccc(F)cc2)nnc1[C@@H](C)NS(=O)(=O)c1ccc(Br)cc1F [Compound 242]
5,94.6,CCn1c(Oc2ccc(F)cc2)nnc1[C@@H](C)NS(=O)(=O)c1cc(Br)c(F)cc1F [Compound 244]
6,88.5,CCn1c(Oc2ccc3cc[nH]c3c2)nnc1[C@@H](C)NS(=O)(=O)c1cccc2ccccc12 [Compound 352]
7,109,CCn1c(Oc2ccc3cc[nH]c3c2)nnc1[C@@H](C)NS(=O)(=O)c1ccc(OC)cc1 [Compound 348]
8,63.5,CCn1c(Oc2ccc3cc[nH]c3c2)nnc1[C@@H](C)NS(=O)(=O)c1cc(F)c(Br)cc1F [Compound 387]
9,95.2,CCn1c(Oc2ccc(F)cc2)nnc1[C@@H](C)NS(=O)(=O)c1cccc(C)c1 [Compound 192]
10,106,CCn1c(Oc2ccc3cc[nH]c3c2)nnc1[C@@H](C)NS(=O)(=O)c1ccc(Cl)cc1 [Compound 335]
11,90.8,CCn1c(Oc2ccc(F)cc2)nnc1[C@@H](C)NS(=O)(=O)c1ccc(C#N)cc1 [Compound 223]
12,91.4,CCn1c(Oc2ccc(F)cc2)nnc1[C@@H](C)NS(=O)(=O)c1cccc(Cl)c1Cl [Compound 209]
13,95.1,CCn1c(Oc2ccc3cc[nH]c3c2)nnc1[C@@H](C)NS(=O)(=O)c1ccc(OC(F)(F)F)cc1 [Compound 362]
14,88.9,CCn1c(Oc2ccc(F)cc2)nnc1[C@@H](C)NS(=O)(=O)c1cc(F)c(Br)cc1F [Compound 216]
15,67.9,CCn1c(Oc2ccc(F)cc2)nnc1[C@@H](C)NS(=O)(=O)c1ccc(-c2ccno2)s1 [Compound 258]
16,82.8,CCn1c(Oc2ccc(F)cc2)nnc1[C@@H](C)NS(=O)(=O)c1cccc(F)c1 [Compound 252]
17,92.8,CCn1c(Oc2ccc3cc[nH]c3c2)nnc1[C@@H](C)NS(=O)(=O)c1cc(Cl)ccc1Cl [Compound 341]
18,76.5,CCc1ccc(OC)c(S(=O)(=O)N[C@H](C)c2nnc(Oc3ccc(F)cc3)n2CC)c1 [Compound 311]
19,84,CCn1c(Oc2ccc3cc[nH]c3c2)nnc1[C@@H](C)NS(=O)(=O)c1cccc(OC)c1 [Compound 386]
20,92.3,CCn1c(Oc2ccc3cc[nH]c3c2)nnc1[C@@H](C)NS(=O)(=O)CCc1cccc2ccccc12 [Compound 353]
21,106,"CCn1c(Oc2cccc(N3CCN(C)CC3)c2)nnc1[C@@H](C)NS(=O)(=O)c1ccc(Cl)c(Cl)c1 [Compound 45, 3,4-Dichloro-N-((R)-1-[4-ethyl-5-[3-(4-methyl-piperazin-1-yl)-phenoxy]-4H-[1,2,4]triazol-3-yl]-ethyl)-benzenesulfonamide]"
22,79.6,CCn1c(Oc2ccc(F)cc2)nnc1[C@@H](C)NS(=O)(=O)c1cc(C)cc(C)c1 [Compound 262]
23,73.9,CCCc1ccc(S(=O)(=O)N[C@H](C)c2nnc(Oc3ccc4cc[nH]c4c3)n2CC)cc1 [Compound 377]
24,94.6,CCn1c(Oc2ccc(F)cc2)nnc1[C@@H](C)NS(=O)(=O)CCc1cccc2ccccc12 [Compound 180]
